The nature of test [1]: Inhibition of TNFalpha-induced NFkappaB (unknown origin) expressed in mouse NIH3T3-KBF-Luc cells pre-incubated for 15 mins before TNFalpha stimulation for 6 hrs by luciferase reporter gene assay. It counts as cell-based, Homo sapiens. (In general: A reporter such as luciferase makes a cellular process visible.)
For test [2], the target named is T1, Nuclear factor erythroid 2-related factor 2 (Homo sapiens, UniProt Q16236).
T1 sequence (Q16236 whole entry): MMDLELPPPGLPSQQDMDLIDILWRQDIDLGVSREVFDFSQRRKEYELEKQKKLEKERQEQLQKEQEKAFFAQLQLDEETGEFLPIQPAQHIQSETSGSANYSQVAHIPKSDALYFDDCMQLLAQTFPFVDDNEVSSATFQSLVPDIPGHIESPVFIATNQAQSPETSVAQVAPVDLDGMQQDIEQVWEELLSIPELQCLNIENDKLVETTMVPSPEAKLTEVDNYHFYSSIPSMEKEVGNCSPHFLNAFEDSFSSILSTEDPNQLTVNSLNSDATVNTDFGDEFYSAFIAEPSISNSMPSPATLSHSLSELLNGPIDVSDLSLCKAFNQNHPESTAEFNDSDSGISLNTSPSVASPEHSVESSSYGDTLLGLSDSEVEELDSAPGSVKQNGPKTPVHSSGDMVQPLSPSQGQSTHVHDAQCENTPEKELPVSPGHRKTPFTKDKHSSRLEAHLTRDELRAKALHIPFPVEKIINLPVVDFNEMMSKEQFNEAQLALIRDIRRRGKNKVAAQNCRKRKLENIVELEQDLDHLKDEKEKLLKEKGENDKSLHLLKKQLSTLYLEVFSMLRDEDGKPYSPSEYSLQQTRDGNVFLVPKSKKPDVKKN
Put plainly: Activation of Nrf2 in human HaCaT-ARE-Luc cells expressing Nqo1 ARE-Luc reporter plasmid incubated for 6 hrs by luciferase reporter gene assay. Format: cell-based.

The target of test [3] is T2, Nuclear factor erythroid 2-related factor 2 (Homo sapiens) (UniProt Q16236).
T2 sequence (whole entry): T1 sequence (Q16236 whole entry)
Description: Activation of Nrf2 in human HaCaT-ARE-Luc cells expressing Nqo1 ARE-Luc reporter plasmid at 0.1 to 50 uM in presence of 15 mM NAC incubated for 6 hrs by luciferase reporter gene assay. Format: cell-based.

The subject of test [4] is HaCaT. Description: Induction of ROS production in human HaCaT cells at 10 uM incubated for 3 hrs by DCFH-DA staining based fluorimetry. It counts as functional, cell-based.
Another test is filed under the species Homo sapiens. Description: Inhibition of TNFalpha-induced NFkappaB (unknown origin) canonical pathway expressed in mouse NIH3T3-KBF-Luc cells assessed as inhibition of IkappaB-alpha phosphorylation pre-incubated for 15 mins before TNFalpha stimulation for 6 hrs by Western blot analysis. Format: cell-based. A general note: Immunoblotting shows a protein as a band on a membrane.

Test [5] concerns the target Transcription factor p65 (Homo sapiens) (UniProt Q04206). Put plainly: Inhibition of TNFalpha-induced NFkappaB (unknown origin) canonical pathway expressed in mouse NIH3T3-KBF-Luc cells assessed as inhibition of p65 phosphorylation pre-incubated for 15 mins before TNFalpha stimulation for 6 hrs by Western blot analysis. It counts as cell-based.
Test [6] concerns HaCaT. Description: Induction of ROS production in human HaCaT cells at 400 uM incubated for 3 hrs by DCFH-DA staining based fluorimetry. Format: functional, cell-based.

Each structure is given as a SMILES string. Activity calls are given as the source filed them. No cut-off for these calls is given here.

Transcription factor p65 (Homo sapiens), sequence (Q04206 whole entry): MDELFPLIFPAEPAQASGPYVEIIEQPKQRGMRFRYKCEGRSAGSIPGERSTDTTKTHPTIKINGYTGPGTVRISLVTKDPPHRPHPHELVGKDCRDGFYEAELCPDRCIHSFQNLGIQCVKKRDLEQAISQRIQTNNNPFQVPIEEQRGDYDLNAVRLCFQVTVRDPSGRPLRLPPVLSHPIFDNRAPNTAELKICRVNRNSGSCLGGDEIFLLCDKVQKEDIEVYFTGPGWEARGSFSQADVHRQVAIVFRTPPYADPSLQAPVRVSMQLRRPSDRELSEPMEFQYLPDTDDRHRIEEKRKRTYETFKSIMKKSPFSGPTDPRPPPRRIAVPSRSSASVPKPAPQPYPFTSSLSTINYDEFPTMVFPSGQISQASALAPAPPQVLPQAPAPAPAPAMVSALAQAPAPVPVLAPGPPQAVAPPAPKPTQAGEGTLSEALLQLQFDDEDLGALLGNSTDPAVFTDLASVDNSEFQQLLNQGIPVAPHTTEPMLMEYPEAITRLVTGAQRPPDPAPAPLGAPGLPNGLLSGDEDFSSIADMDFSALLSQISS

As a reminder, the IC50 is the concentration that gives 50% inhibition. Low values mean greater potency in that assay, high ones weaker potency in that assay. The EC50 is the concentration giving half of the maximal effect. In turn, `C=C(C)[C@@H]1CC=C(C)C(=O)/C1=C/OC1C=C(C)C(=O)O1` (stereo partly drawn) had an IC50 in test [1] greater than 50 µM. The same compound displayed an EC50 in test [2] of 1.6 µM.

`CC1=CC(OCc2ccc(C(C)C)cc2)OC1=O` (stereo not drawn) came in with an IC50 in test [1] greater than 50 µM. The compound further registered an EC50 in test [2] of 16.3 µM.

With `CC1=CC(O/C=C2\C[C@]3(C)[C@H]4CC=C5[C@@H]6[C@@H](C)[C@H](C)CC[C@]6(C)CC[C@@]5(C)[C@]4(C)CC[C@H]3C(C)(C)C2=O)OC1=O` (stereo partly drawn), in test [1], the half-inhibitory concentration (IC50) is greater than 50 µM. The same compound came in with an EC50 in test [2] greater than 50 µM.

`C=C(C)[C@@H]1CC[C@]2(C)CC[C@]3(C)[C@H](CC[C@@H]4[C@@]5(C)C/C(=C\OC6C=C(C)C(=O)O6)C(=O)C(C)(C)[C@@H]5CC[C@]43C)[C@@H]12` (stereo partly drawn) displayed an IC50 in test [1] greater than 50 µM. For the same compound, the EC50 in test [2] was greater than 50 µM.

In the case of `CC1=CC(O/C=C2\C[C@]3(C)[C@H]4CC=C5[C@@H]6CC(C)(C)CC[C@]6(C)CC[C@@]5(C)[C@]4(C)CC[C@H]3C(C)(C)C2=O)OC1=O` (stereo partly drawn), the IC50 in test [1] was greater than 50 µM. In test [2], this compound displayed an EC50 greater than 50 µM.

In turn, `COC(=O)[C@]12CCC(C)(C)C[C@H]1C1=CC[C@@H]3[C@@]4(C)C/C(=C\OC5C=C(C)C(=O)O5)C(=O)C(C)(C)[C@@H]4CC[C@@]3(C)[C@]1(C)CC2` (stereo partly drawn) had an IC50 in test [1] greater than 50 µM. The compound further returned an EC50 in test [2] greater than 50 µM.

As to `CC1=CC(O/C=C2\C[C@]3(C)C(COc4ccc5ccc(=O)oc5c4)[C@](C)(O)CC[C@H]3C(C)(C)C2=O)OC1=O` (stereo partly drawn), the outcome (in test [3]; in the test with HaCaT [4]) was inactive. Moreover, inhibition in test [1] was half-maximal at 7.9 µM (IC50). This compound also registered an EC50 in test [2] of 1.2 µM.

In test [1], `CC1=CC(O/C=C2/C(=O)C(=C(C)C)CC[C@H]2C)OC1=O` (stereo partly drawn) displayed an IC50 greater than 50 µM. In test [2], this compound returned a concentration giving a half-maximal response (EC50) of 5 µM.

In turn, `CC1=CC(OC2C[C@H](C)CC[C@H]2C(C)C)OC1=O` (stereo partly drawn) came in with an IC50 in test [1] greater than 50 µM. Besides, a half-maximal response in test [2] (EC50) required 26.3 µM.

Take `COC(=O)[C@]12CC[C@@H](C)[C@H](C)[C@H]1C1=CC[C@@H]3[C@@]4(C)C/C(=C\OC5C=C(C)C(=O)O5)C(=O)C(C)(C)[C@@H]4CC[C@@]3(C)[C@]1(C)CC2` (stereo partly drawn): the IC50 in test [1] is greater than 50 µM. Moreover, the inhibition entry (in the test listed under Homo sapiens; in test [5]) was “inactive” in each case. Also, in test [2], the EC50 was greater than 50 µM.

`CC1=C[C@H](O/C=C2/C(=O)O[C@@H]3C4=C(C[C@H]23)[C@@H](O)CCC4(C)C)OC1=O` [STRIGOL] gave an EC50 in test [2] of 1.2 µM.

Consider `CC1=CC(O/C=C2/C(=O)C(C)[C@H]3C[C@@]23C(C)C)OC1=O` (stereo partly drawn), for which the IC50 in test [1] is greater than 50 µM. Further, the response in test [2] was half-maximal at 1.9 µM (EC50).

`CC(C)=CCCC(C)CCOC1C=C(C)C(=O)O1` (stereo not drawn) returned an IC50 in test [1] greater than 50 µM. Also, in test [2], a half-maximal effect (EC50) was put at 22.8 µM.

In the case of `CC(C)=CCOC1C=C(C)C(=O)O1` (stereo not drawn), in test [1], the IC50 is greater than 50 µM. Also, the EC50 in test [2] amounted to 29.5 µM.

Take `CC(C)(C)OO`: the result with HaCaT [6] was Active.

In turn, `C=C(C)[C@@H]1CC[C@]2(C(=O)OC)CC[C@]3(C)[C@H](CC[C@@H]4[C@@]5(C)C/C(=C\OC6C=C(C)C(=O)O6)C(=O)C(C)(C)[C@@H]5CC[C@]43C)[C@@H]12` (stereo partly drawn) gave an IC50 in test [1] greater than 50 µM. Besides, in test [2], the EC50 was greater than 50 µM.

In turn, `CC1=CC(OCC2=CC3CC(C2)C3(C)C)OC1=O` (stereo not drawn) showed an IC50 in test [1] greater than 50 µM. In test [2], this compound displayed an EC50 of 15.5 µM.

In turn, `COC(=O)/C(C)=C/CC/C(C)=C/CC/C(C)=C/CC[C@@H]1[C@@]2(C)C/C(=C\OC3C=C(C)C(=O)O3)C(=O)C(C)(C)C2CC[C@@]1(C)O` (stereo partly drawn) registered an EC50 in test [2] of 2.5 µM.

On to `CC1=CC(O/C=C2/C(=O)[C@H](C(C)C)CC[C@H]2C)OC1=O` (stereo partly drawn), for which, in test [1], the IC50 was greater than 50 µM. The EC50 in test [2] is 17.8 µM.

Compound `CC(C)=CCC/C(C)=C/COC1C=C(C)C(=O)O1` (stereo not drawn) gave an IC50 in test [1] greater than 50 µM. In test [2], this compound showed an EC50 of 16.2 µM.

`COC(=O)[C@@]1(C)CC[C@]2(C)CC[C@]3(C)C(=CC(=O)[C@@H]4[C@@]5(C)C/C(=C\OC6C=C(C)C(=O)O6)C(=O)C(C)(C)[C@@H]5CC[C@]43C)[C@@H]2C1` (stereo partly drawn): in test [1], the IC50 is greater than 50 µM. This compound gave an EC50 in test [2] greater than 50 µM.
